{
  "source": "paper PMC12750388",
  "about": "“Coumarin-1,2,3-Triazole Conjugates as Molecular Scaffolds for the Selective Induction of ROS-Driven Apoptosis in Cancer Cells in the Development of Pyruvate Kinase M2 Inhibitors” (ACS Omega, 2025)",
  "key": {"SCC-25": {"test_system": "SCC-25", "test": "MTT cell viability assay, SCC-25", "format": "cell-based, human", "protocol": "(§1) The viability of SCC cell lines and primary human fibroblast cells was evaluated using the MTT assay to determine half maximal inhibitory concentration (IC50). Briefly, cells were grown in triplicate in 96-well plates (5 × 10^3 cells/well) until confluence. Then the medium was removed, fresh medium was added, and the cells were returned to the incubator in the presence of different compounds. DMSO at the same concentrations was used as a 100% cell viability control. After 48 h, cells were incubated with 5 mg/mL MTT reagent (3-(4,5-dimethyl-2-thiazolyl)-2,5-diphenyl-2-H-tetrazolium bromide) (Sigma-Aldrich Co., St. Louis, MO, USA) for 3.5 h. After that, formazan crystals were dissolved in MTT solvent solution (DMSO/methanol 1:1 v/v), and the absorbance at 560 nm was evaluated using an EPOCH microplate spectrophotometer (BioTek Instruments, Winooski, VT, USA) with the background absorbance at 670 nm subtracted. Each of the 12 compounds (7a–7l) was tested at six different concentrations, ranging from 6.25 to 200 μM in cancer and normal cell lines. Control (carboplatin) was tested at six different concentrations ranging from 25 μM to 800 μM in cancer cells and from 50 μM to 1600 μM in normal cells.\n(§2) Half-maximal inhibitory concentration (IC50) values were obtained from the MTT assay of at least three independent replicates through nonlinear regression analysis using GraphPad Prism 5.0 software (Intuitive Software for Science, San Diego, CA, USA). Data were presented as means ± standard deviation (SD). A log dose–response curve (inhibitor vs response) using the least-squares method was used to determine the IC50 and SD from the data. The selectivity index (SI) was calculated as the ratio between the IC50 in normal cells and the IC50 in cancer cells, obtained by dividing the IC50 of normal cells by the IC50 of cancer cells."}, "SCC-9 cells [1]": {"test_system": "SCC-9 cells", "test": "ROS-Glo H2O2 assay", "format": "cell-based, human", "conditions": "SCC-9, 2 × IC50, 12 and 24 h", "protocol": "(§3) The production of reactive oxygen species (ROS) was assessed by the detection of hydrogen peroxide (H2O2) using the ROS-Glo H2O2 assay kit (Promega Corporation, Madison, WI, USA; G8820). […] A plate with wells without cells was used as a control. Cells and cell-free wells remained in treatment at times of interest, and 2 h before completion of the times, well volumes were removed to reduce to 40 μL per well. Then the positive control of menadione (Sigma-Aldrich Co., St. Louis, MO, USA), a polycyclic aromatic ketone based on 1,4-naphthoquinone, was used to treat its respective well, and H2O2 substrate from the kit was added for all treatments, followed by the incubation of the plate for the remaining 2 h. Then the detection solution was added, and the plates remained at room temperature for 20 min, following the reading in the TD 20/20 luminometer (Turner Designs, Sunnyvale, CA, USA). The reading of bioluminescence detected is indicated as arbitrary units (a.u.). Additionally, the cell viability was assessed through pretreatment of cells with 10 mM N-acetyl-L-cysteine (NAC) (Sigma-Aldrich Co., St. Louis, MO, USA) for 2 h. […] At the end of the time, the MTT cell viability assay was performed."}, "[2]": {"test_system": "Primary Gingival Fibroblast", "test": "MTT cell viability assay, normal cells", "format": "cell-based, human", "protocol": "as §1, §2"}, "SCC-9 cells [3]": {"test_system": "SCC-9 cells", "test": "MTT cell viability with N-acetyl-L-cysteine pretreatment", "format": "cell-based, human", "conditions": "SCC-9, 48 h; 7f 1 × IC50, menadione 20 μM", "protocol": "as §3"}, "Hep-G2": {"test_system": "Hep-G2", "test": "MTT cell viability assay, Hep-G2", "format": "cell-based, human"}, "Hemolysis assay": {"test": "Hemolysis assay", "format": "cell-based", "conditions": "isolated human erythrocytes, pH 7.5, read-out: level of hemolysis", "protocol": "(§4) A hemolysis assay to evaluate surfactant effects of tested substances was performed using human blood approved by the Research Ethics Committee of Universidade Federal Fluminense (CAAE: 43134721.4.0000.5626). Erythrocytes are isolated upon three repeated centrifugation cycles at 1500 rpm for 15 min. Between each cycle of centrifugation, supernatant was removed, and a pH 7.5 PBS (phosphate-buffered saline) solution supplemented with 10 mM glucose was added to remove lysed erythrocytes. The number of cells was determined in an Automatic Cell Counter (Thermo Fisher, Waltham, MA, USA). Erythrocytes were then plated in 96-well plates at a concentration of 4 × 10^8 cells/well in triplicates, and 10 μL of compounds were added at a final concentration of 300 μM in PBS with glucose (final volume 100 μL). Ten μL of PBS was used as a negative control, and 10 μL of PBS with 0.1% Triton X-100 was used as a positive control. Data reading was performed with EPOCH (BioTek Instruments, Winooski, VT, USA) at an absorbance of 540 nm."}, "erythrocytes": {"test_system": "erythrocytes", "test": "Hemolysis assay", "format": "cell-based", "conditions": "human erythrocytes, 300 μM", "protocol": "as §4"}, "PKM2": {"target": "T1, PKM2 (Homo sapiens, UniProt P14618)", "T1 construct": "purchased Sigma-Aldrich Co., St. Louis, MO, USA", "T1 sequence (P14618 whole entry)": "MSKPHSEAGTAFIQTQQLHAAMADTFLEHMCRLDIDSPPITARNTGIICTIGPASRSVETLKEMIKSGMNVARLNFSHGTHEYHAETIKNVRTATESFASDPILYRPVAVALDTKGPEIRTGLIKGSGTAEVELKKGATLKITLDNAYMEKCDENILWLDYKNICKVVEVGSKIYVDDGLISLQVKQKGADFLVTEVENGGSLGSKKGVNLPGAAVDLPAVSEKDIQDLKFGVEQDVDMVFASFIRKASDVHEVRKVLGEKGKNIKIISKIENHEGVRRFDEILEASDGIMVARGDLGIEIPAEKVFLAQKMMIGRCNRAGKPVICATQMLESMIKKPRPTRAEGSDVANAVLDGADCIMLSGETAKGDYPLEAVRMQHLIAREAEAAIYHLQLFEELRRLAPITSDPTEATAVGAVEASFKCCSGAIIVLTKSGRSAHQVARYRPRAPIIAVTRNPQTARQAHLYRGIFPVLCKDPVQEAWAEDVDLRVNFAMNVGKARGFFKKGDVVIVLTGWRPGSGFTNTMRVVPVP", "test": "LDH-coupled Pyruvate Kinase M2 activity assay", "format": "biochemical", "protocol": "LDH-coupled Pyruvate Kinase M2 (PKM2) activity assay was performed according to published protocols. For the assay, a pH 7.5 buffer solution composed of 50 mM Tris, 100 mM KCl, and 10 mM MgCl2 was prepared, to which 30 ng of human recombinant PKM2 (Sigma-Aldrich Co., St. Louis, MO, USA), 0.6 mM adenosine diphosphate (ADP), 0.5 mM phosphoenolpyruvate (PEP), 180 μM NADH, 10 μM fructose 1,6-bisphosphate (FBP), and 8 units of LDH were added. PEP was added only right before measurement to start the reaction. The change in absorbance at 340 nm due to oxidation of NADH by LDH was measured from 0 to 30 min using an EPOCH microplate spectrophotometer (BioTek Instruments, Winooski, VT, USA). The activity of PK was defined as % in relation to the indicated control."}},
  "note": "pIC50: −log10 of the molar value. Values joined by “and” are separate entries in the source; they are usually repeats but may differ in a detail not shown here. Equal values may be shown once.",
  "data": [
    {"smiles": "O=C1C=C(OCc2cn(CCCOc3cc(=O)oc4ccccc34)nn2)C(=O)c2ccccc21", "note": "[Compound 7f, 2-((1-(3-((2-Oxo-2H-chromen-4-yl)oxy)propyl)-1H-1,2,3-triazol-4-yl)methoxy)naphthalene-1,4-dione]", "values": [
      {"measurement": "pIC50", "setting": "SCC-25; Homo sapiens, SCC-25, MTT, 48 h", "value": 4.96},
      {"measurement": "SI SCC-25", "setting": "SCC-25; IC50 human gingival fibroblast / IC50 SCC-25", "value": 2.05},
      {"measurement": "production of hydrogen peroxide (H2O2) / ROS", "setting": "SCC-9 cells [1]", "value": "significant increase in ROS after 12 and 24 h"},
      {"measurement": "pIC50", "setting": "[2]; Homo sapiens, Fibroblast, MTT, 48 h, normal cells", "value": 4.64},
      {"measurement": "Average SI", "setting": "[2]; average of SI for SCC-9, SCC-4 and SCC-25 versus gingival fibroblast", "value": 2.26},
      {"measurement": "cell viability in the presence of 10 mM N-acetyl-L-cysteine (NAC)", "setting": "SCC-9 cells [3]", "value": "NAC protected cell death"},
      {"measurement": "pIC50", "setting": "Hep-G2; HepG2, MTT, human hepatocellular carcinoma", "value": 4.80},
      {"measurement": "SI Hep-G2", "setting": "Hep-G2; versus human gingival fibroblast", "value": 1.42},
      {"measurement": "hemolysis at 300 µM", "setting": "Hemolysis assay", "value": "~5", "unit": "%"},
      {"measurement": "hemolytic activity / membrane integrity", "setting": "erythrocytes", "value": "lack of significant hemolytic activity"},
      {"measurement": "PKM2 % of activity relative to control", "setting": "PKM2; 0.8 µM 7f, experimental replicates 1-5, LDH-coupled assay, vs DMSO", "value": "96.14% and 81.36% and 72.11% and 97.25% and 76.4557%"},
      {"measurement": "PKM2 % of activity relative to control", "setting": "PKM2; 4 µM 7f, experimental replicates 1-5, LDH-coupled assay, vs DMSO", "value": "88.82% and 107.0205% and 91.86% and 99.18%"},
      {"measurement": "remaining activity at 4 µM", "setting": "PKM2; 4 µM 7f, experimental replicates 1-5, LDH-coupled assay, vs DMSO, read-out: PKM2 % of activity relative to control", "value": 96.2, "unit": "%"},
      {"measurement": "PKM2 % of activity relative to control", "setting": "PKM2; 20 µM 7f, experimental replicates 1-5, LDH-coupled assay, vs DMSO", "value": "87.42% and 68.0203% and 47.4026% and 85.71% and 68.03%"},
      {"measurement": "PKM2 % of activity relative to control", "setting": "PKM2; 100 µM 7f, experimental replicates 1-5, LDH-coupled assay, vs DMSO", "value": "42.39% and 13.86% and 46.13% and 34.17% and 45.14%"},
      {"measurement": "pIC50", "setting": "PKM2; LDH-coupled assay, 0.8 μM to 100 μM, 30 min", "value": 4.26}
    ]}
  ]
}
